Reference: ChEMBL document CHEMBL1201862, “PubChem BioAssay data set” (2004)
The source made the active and inactive calls.

Tests used:
fMet-Leu-Phe receptor = biological target: T1, fMet-Leu-Phe receptor (Homo sapiens, UniProt P21462); assay: formyl peptide receptor binders – dose response (AID 519); type: functional
T1 sequence (P21462 whole entry): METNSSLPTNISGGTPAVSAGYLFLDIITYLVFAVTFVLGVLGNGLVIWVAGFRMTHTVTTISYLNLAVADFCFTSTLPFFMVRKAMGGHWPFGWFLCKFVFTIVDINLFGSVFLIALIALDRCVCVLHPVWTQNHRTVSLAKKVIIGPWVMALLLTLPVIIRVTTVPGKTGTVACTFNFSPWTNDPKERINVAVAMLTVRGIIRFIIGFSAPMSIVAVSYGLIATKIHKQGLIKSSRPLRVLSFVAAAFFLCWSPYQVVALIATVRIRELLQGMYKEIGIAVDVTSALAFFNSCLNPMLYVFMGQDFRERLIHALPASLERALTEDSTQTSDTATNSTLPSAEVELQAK

[1] = viability loss in human Jurkat cells – cell-based, luminescence, cytotoxicity control for P. falciparum gametocyte viability project, dose response (AID 1117277); type: functional;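 further: potency reflects loss of cellular ATP meaning fewer viable cells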
[2] = viability inhibitors of stage V gametocytes – luminescence, dose response (AID 1117278); type: functional, cell-based;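 further: gametocytes exposed to compound for 24 hours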
[3] = biological target: Mitogen-activated protein kinase 10 (Homo sapiens, UniProt P53779); assay: Dose response biochemical screening assay for inhibitors of c-Jun N-Terminal Kinase 3 (JNK3). [Related pubchem assays: 746 ]
Cytochrome P450 3A4 = Cytochrome P450 3A4 (Homo sapiens, UniProt P08684);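 further: CYP3A4 tested as one member of a cytochrome P450 panel screen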
cells [4] = assay: cells
[5] = biological target: T2, Oxysterols receptor LXR-beta (Homo sapiens, UniProt P55055); type: functional, cell-based;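 further: Cell-based luminescence dose-response assay of agonist activity at LXR, run as a confirmatory counterscreen to a daf-12 agonist screen; HEK293 cells with Gal4-LXR fusion and GAL4-driven luciferase reporter; agonist potency from rising luciferase signal of a Gal4-LXR reporter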
T2 sequence (P55055 whole entry): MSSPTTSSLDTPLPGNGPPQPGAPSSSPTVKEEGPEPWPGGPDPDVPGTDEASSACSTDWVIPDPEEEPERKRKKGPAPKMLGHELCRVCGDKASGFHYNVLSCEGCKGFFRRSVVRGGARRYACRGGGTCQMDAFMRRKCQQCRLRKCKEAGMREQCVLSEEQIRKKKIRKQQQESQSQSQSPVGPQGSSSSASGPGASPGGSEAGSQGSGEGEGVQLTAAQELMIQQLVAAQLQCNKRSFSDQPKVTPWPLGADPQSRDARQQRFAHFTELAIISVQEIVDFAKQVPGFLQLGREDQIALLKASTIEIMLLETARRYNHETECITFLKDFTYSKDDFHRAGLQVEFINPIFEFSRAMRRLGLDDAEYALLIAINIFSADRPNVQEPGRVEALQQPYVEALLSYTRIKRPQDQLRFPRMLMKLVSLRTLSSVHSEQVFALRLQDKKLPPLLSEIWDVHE

[6] = blockers of HIV-1 ZM109 envelope-driven cell-cell fusion – HeLa effector, CEM target cells, luciferase, cherry-pick, dose response (AID 652058); type: functional, cell-based;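 further: luciferase signal from HIV-1 Env mediated cell-cell fusion of effector and target cells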
[7] = off-target signal loss in HeLa-CEM21 co-culture – HeLa F-luc CTL cells, cherry-picked, counter-screen for HIV-1 Env fusion inhibitor project, dose response (AID 652040); type: functional, cell-based;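 further: potency for signal decrease marking cytotoxic or nonspecific inhibition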
[8] = HIV-1 AD8 envelope cell-cell fusion blockers – cherry-pick, dose response (AID 652062); type: functional, cell-based;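 further: luciferase signal from cell-cell fusion driven by HIV-1 clade B AD8 Env; potency is for inhibitors of fusion seen as a drop in luminescence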
[9] = viability loss in CEM21 cells – cell-based, CellTiter-Glo luminescence, cherry-picked, cytotoxicity control for viral fusion inhibitor project, dose response (AID 652042); type: functional;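 further: potency for signal decrease meaning cytotoxicity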
[10] = blockers of HIV-1 envelope-mediated cell-cell fusion – cherry-pick, dose response (AID 652057); type: functional, cell-based
Major prion protein = Major prion protein (Homo sapiens, UniProt P04156); type: functional, cell-based
cells [11] = assay: cells; remark: listed apart in the source
[12] = T. cruzi growth inhibition in host cells, dose response, cell-based, plate reader, dry powder, set 2 (AID 652275); type: functional
HT-1080 = assay: HT1080 cell viability loss – fluorescence readout (AID 620); type: functional, cell-based; settings: Homo sapiens
[13] = biological target: T3, Luciferin 4-monooxygenase (Photinus pyralis, UniProt P08659); assay: Counter Screen for Luciferase-based Assay Positives. [Related pubchem assays: 620, 618, 411 ]
[14] = viability of PTEN-deleted HCT116 cells – cell-based, HCT116 PTEN knockout, dose response (AID 1047); type: functional;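 further: HCT116 colon tumor cells with PTEN knocked out; cells exposed to compound for 60 hours before readout; potency for loss of cell viability measured by luminescence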
[15] = viability of HCT116 lacking mutant beta-catenin – cell-based, human colon tumor, dose response (AID 1045); type: functional;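 further: HCT116 colon tumor cells with beta catenin knocked out; cells exposed to compound for 60 hours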
[16] = Luminescence Cell-Based Dose Confirmation HTS to Identify Inhibitors of Platelet Dense Granule Release. [Related pubchem assays: 1663 (Primary HTS), 1678 (Summary of Project)]; type: functional
[17] = biological target: T3, Luciferin 4-monooxygenase; assay: inhibition of purified Photinus pyralis luciferase – biochemical, luminescence, dose response (AID 1891)

## CCCOc1ccc(C2C(C(=O)c3ccc(C)o3)=C(O)C(=O)N2Cc2cccnc2)cc1 (stereo unspecified)
fMet-Leu-Phe receptor
  Ki: 42.7 µM (inactive)

## O=C(O)CCN1C(=O)c2ccc(NC(=O)c3ccco3)cc2C1=O
[1]
  IC50: > 83.2 µM (inactive)
[2]
  IC50: > 109 µM (inactive)

## COc1cccc2c(O)c(C(=O)NCc3cccs3)cnc12
[3]
  IC50: 18.9 µM (not active)
Cytochrome P450 3A4
  AC50: 1.78 µM (inconclusive)

## CC(C)c1ccc(-n2nc3ccc(N)cc3n2)cc1
Cells [4]
  EC50: > 67.6 µM (inactive)
[5]
  EC50: > 67.6 µM (inactive)

## CCOc1c(Cl)cc(C(=O)Nc2cccc(C(=O)O)c2)cc1Cl
[1]
  IC50: > 83.2 µM (inactive)
[2]
  IC50: > 109 µM (inactive)

## Cc1ccc(NC(=O)C2C(=O)N(CCO)C3(C)CC2c2ccccc2O3)cc1 (stereo unspecified)
fMet-Leu-Phe receptor
  Ki: > 66.7 µM (inactive)

## Cc1cc(C)cc(COn2ccnc2)c1
[1]
  IC50: > 83.4 µM (inactive)
[2]
  IC50: > 109 µM (inactive)

## Cc1ccc2c(c1)Cc1nc3ccccc3nc1-2
Cells [4]
  EC50: > 67.6 µM (inactive)
[5]
  EC50: > 67.6 µM (inactive)

## COc1cccc(NC(=O)c2ccncc2)c1
[1]
  IC50: > 83.4 µM (inactive)
[2]
  IC50: > 109 µM (inactive)

## CCc1ccc(OCC(=O)NCC(c2ccc(Cl)cc2)N2CCCCC2)cc1 (stereo unspecified)
[6]
  AC50: 4.51 µM (active)
[7]
  AC50: 9.03 µM (active)
[8]
  AC50: 8.41 µM (active)
[9]
  AC50: 28.4 µM (active)
[10]
  AC50: 3.95 µM (active)

## O=C(NCc1nc2ccccc2[nH]1)c1cccs1
[3]
  IC50: 43 µM (not active)

## O=C(O)CCSc1ccc2ccccc2n1
[3]
  IC50: 34.8 µM (not active)
Major prion protein
  IC50: 3.19 µM (active)
Cells [11]
  IC50: > 138 µM (inactive)

## COc1ccc(-c2cn3cccnc3n2)cc1NC(=O)C1CC1
fMet-Leu-Phe receptor
  Ki: > 66.7 µM (inactive)

## COc1cc(C2NC(=O)NC(C)=C2C(=O)OC2CCCC(C)C2)ccc1O (stereo unspecified)
[3]
  IC50: 39.4 µM (not active)

## NC(=O)c1c(Br)n(C2OC(CO)C(O)C2O)c2ncnc(N)c12 (stereo unspecified)
[6]
  AC50: 5 µM (active)
[7]
  AC50: 28 µM (active)
[8]
  AC50: 7.68 µM (active)
[9]
  AC50: 3.1 µM (active)
[10]
  AC50: 3.32 µM (active)

## CC(=O)Nc1ccc(N(C(=O)CNC(=O)c2ccco2)C(C(=O)NCC2CCCO2)c2ccccc2)cc1 (stereo unspecified)
[1]
  IC50: > 83.3 µM (inactive)
[2]
  IC50: > 109 µM (inactive)

## CC(C)N1C[C@H](CNCc2ccc(Oc3ccccc3)cc2)Oc2c(NC(=O)c3ccncc3)cccc2C1=O
[12]
  AC50: 0.0164 µM (active)

## CC(C)N1CC[C@@H](CNCc2ccc(Oc3ccccc3)cc2)Oc2c(NC(=O)c3ccncc3)cccc2C1=O
[12]
  AC50: 0.083 µM (active)

## Cc1cccc(-c2ccc([C@H]3[C@H](CO)N4CCCCN(C(=O)c5cccnc5)C[C@@H]34)cc2)c1
[12]
  AC50: 2.3 µM (active)

## CC(=O)SCC(=O)/N=c1\sc2cc(F)ccc2n1C
fMet-Leu-Phe receptor
  Ki: 22.8 µM (inactive)

## Cc1ccc(-c2nc(N/N=C/c3ccncc3)c3ccccc3n2)cc1
HT-1080
  EC50: > 50 µM (not active)
Cells [4]
  EC50: > 67.5 µM (inactive)
[13]
  EC50: 7.97 µM (active)
[14]
  EC50: 59.3 µM (active)
[15]
  EC50: 43.7 µM (active)
[5]
  EC50: > 67.5 µM (inactive)
[16]
  EC50: 0.209 µM (active)
[17]
  EC50: 0.158 µM (active)
